# According to US20150031697A1, “METHOD FOR PREVENTING ULTRAVIOLET RADIATION-INDUCED CUTANEOUS DAMAGE AND DEVELOPMENT OF SQUAMOUS CELL CARCINOMAS” (WISCONSIN ALUMNI RESEARCH FOUNDATION, priority 2013, published 2015):
# Where two headings read alike, the source gives them in different places.
# How the values were obtained:
# UVR-induced hyperplasia [1] = test: Effect of topically applied Hsp90 inhibitors on UVR-induced hyperplasia (Table 3); for Effect on Hyperplasia, Mice 1 or Slide 1, 24 Hr. post UVR: key: +++ (positive effect); −−− (negative effect); −− (less negative); for Effect on Hyperplasia, Mice 2 or Slide 2, 24 Hr. post UVR: key: +++ (positive effect); −−− (negative effect); −− (less negative); for Effect on Hyperplasia, Mice 2 or Slide 2, 48 Hr. post UVR: key: +++ (positive effect); −−− (negative effect); −− (less negative); format: in vivo, SKH1 mice; parameters: Effect on Hyperplasia, Mice 2 or Slide 2, 24 Hr. post UVR / Effect on Hyperplasia, Mice 2 or Slide 2, 48 Hr. post UVR / Effect on Hyperplasia, Mice 1 or Slide 1, 24 Hr. post UVR / Effect on Hyperplasia, Mice 1 or Slide 1, 48 Hr. post UVR: key: +++ (positive effect); −−− (negative effect); −− (less negative); settings: for Effect on Hyperplasia, Mice 1 or Slide 1, 24 Hr. post UVR / Effect on Hyperplasia, Mice 1 or Slide 1, 48 Hr. post UVR / Effect on Hyperplasia, Mice 2 or Slide 2, 24 Hr. post UVR / Effect on Hyperplasia, Mice 2 or Slide 2, 48 Hr. post UVR: SKH1 mice, topical; for Effect on Hyperplasia, Mice 1 or Slide 1, 24 Hr. post UVR: mouse 1, 24 Hr. post UVR; for Effect on Hyperplasia, Mice 1 or Slide 1, 48 Hr. post UVR: mouse 1, 48 Hr. post UVR; for Effect on Hyperplasia, Mice 2 or Slide 2, 24 Hr. post UVR: mouse 2, 24 Hr. post UVR; for Effect on Hyperplasia, Mice 2 or Slide 2, 48 Hr. post UVR: mouse 2, 48 Hr. post UVR
# UVR-induced hyperplasia [2] = test: 17AAG effect on UVR-induced hyperplasia / epidermal thickness; format: in vivo; settings: SKH1 mice, 500 nmol topical after each UVR exposure, 24 hr and 48 hr after fourth UVR, p<0.01
# Procedure: Groups of SKH1 mice were exposed to UVR (2 kJ/m2) three times (Monday, Wednesday, Friday, and Monday) weekly for 6 and 12 weeks. […] Mice were sacrificed at 24 hours after the last UVR treatment. […] For histochemistry, skin specimens were fixed in 10% neutral buffered formalin for 24 hours and embedded in paraffin.
# In this experiment, groups of SKH1 hairless mice were exposed either four times to UVR (4 kJ/m^2, Monday, Wednesday, Friday, and Monday) or for 6 and 12 weeks (2 kJ/m^2, thrice weekly, Monday, Wednesday, Friday). […] The mice were sacrificed at 24 hr and 48 hr after the fourth UVR exposure. The, dorsal skin was removed and fixed in 10% formalin for the analyses of epidermal hyperplasia.
# [3] = system: PKCε, Stat3, pStat3Tyr705, pStat3Ser727, Akt, pAktser473; test: Epidermal protein expression levels after UVR (Western blot); format: in vivo, PKCε-overexpressing transgenic mice
# Procedure: PKCε-overexpressing transgenic mice (line 224) were exposed once to UVR (4 kJ/m2). […] Mice were sacrificed 24 hours post-UVR exposure. There were two mice per treatment point. Dorsal skin comprised excised, epidermal cell lysates prepared as described before (Aziz et al., 2007). […] PKCε-overexpressing transgenic mice (line 224) were exposed once to UVR (2 kJ/m2). […] Mice were sacrificed at 24 hours post-UVR exposure. There were three mice per treatment point. Dorsal skin comprised excised, epidermal cell lysates prepared as described before (Aziz et al., 2007). Pooled epidermal cell lysate was analyzed for PKCε expression level by western blot analysis (B). (C) Shown is the quantitation of the western blot (B).
# Mouse skin was excised and scraped to remove subcutaneous fat. The epidermis was scraped off on an ice-cold glass plate, homogenized in lysis buffer [50 mmol/L HEPES, 150 mmol/L NaCl, 10% glycerol, 1% Triton X-100, 1.5 mmol/L MgCl2, 10 μg/m aprotinin, 10 μg/m leupeptin, 1 mmol/L phenylmethylsulfonyl fluoride (PMSF), 200 μmol/L Na3VO4, 200 μmol/L NaF, and 1 mmol/L EGTA (final pH 7.5)]. The homogenate was centrifuged at 14,000 g for 30 min at 4° C. […] The Western blots were quantitated by densitometric analysis using Totallab® Nonlinear Dynamic Image analysis software (Nonlinear USA, Inc., Durham, N.C.). […]
# PKCε, Hsp90β, Hsp70 = test: Expression levels in uninvolved skin at end of SCC experiment; format: in vivo, SKH-1 hairless mice; settings: SKH hairless mice
# Procedure: (§1) The SKH-1 hairless mice (6-7 week old) were exposed to UVR. The UVR source was Kodacel-filtered FS-40 sun lamps (approximately 60% UVB and 40% UVA). Mice were exposed to UVR (1.8 kJ/m2) three times weekly (Monday, Wednesday and Friday). The mice in the vehicle group (n=18) received topical treatment of 200 μl vehicle (DMSO:acetone: 1:40 v/v) before and after each UVR exposures. […] Carcinomas were recorded grossly as downward-invading lesions, which were confirmed histologically. […] At the end of the experiment, mice were sacrificed. […] A part of the uninvolved dorsal skin was fixed for in 10% neutral-buffered formalin for histological examination. […] (D): A part of the uninvolved skin was also used to prepare total epidermal lysate to determine expression level of PKCε, Hsp90β, and Hsp70.
# (§2) 4. […] Initial tumor induction experiment was performed with SKH-1 hairless mice.
# [4] = system: MMP-2, MMP-9, Collagen IV, Hsp70; test: Skin expression of MMPs, collagen IV, Hsp70 and PCNA after UVR (Western blot); format: in vivo; settings: SKH1 mice
# Procedure: Groups of SKH1 mice were exposed to UVR (2 kJ/m2) three times (Monday, Wednesday, Friday, and Monday) weekly for 6 and 12 weeks. […] Mice were sacrificed at 24 hours after the last UVR treatment. […] To determine morphological and biochemical alteration in skin, the two layers of skin (epidermis and dermis) were isolated separately for analysis of the indicated protein by the western blot analysis.
# Mouse skin was excised and scraped to remove subcutaneous fat. The epidermis was scraped off on an ice-cold glass plate, homogenized in lysis buffer [50 mmol/L HEPES, 150 mmol/L NaCl, 10% glycerol, 1% Triton X-100, 1.5 mmol/L MgCl2, 10 μg/m aprotinin, 10 μg/m leupeptin, 1 mmol/L phenylmethylsulfonyl fluoride (PMSF), 200 μmol/L Na3VO4, 200 μmol/L NaF, and 1 mmol/L EGTA (final pH 7.5)]. The homogenate was centrifuged at 14,000 g for 30 min at 4° C. Epidermal cell lysate proteins were fractionated on 10% Criterion™ pre-cast SDS-polyacrylamide gels (Bio-Rad Laboratories, Hercules, Calif.). The protein was transferred to 0.45 μm Hybond-P polyvinylidene difluoride (PVDF) transfer membrane (Amersham Life Sciences, Piscataway, N.J.). The membrane was then incubated with the indicated antibody followed by a horseradish peroxidase secondary antibody (Thermo Scientific), and the detection signal was developed with Amersham's enhanced chemiluminescence reagent and using FOTO/Analyst Luminary Work Station (Fotodyne Inc.). The Western blots were quantitated by densitometric analysis using Totallab® Nonlinear Dynamic Image analysis software (Nonlinear USA, Inc., Durham, N.C.).
# [5] = cited from earlier work; for bioavailability: literature
# UVR-induced SCC [6] = test: UVR-induced development of SCC in SKH-1 hairless mice (tumor induction experiment); format: in vivo
# Procedure: as §1
# (§3) The PKCε-overexpressing transgenic (TG) and wildtype FVB/N mice (6-7 week old) were exposed to UVR. Mice were exposed to UVR (1.8 kJ/m2) three times weekly (Monday, Wednesday and Friday). The mice in the vehicle group received topical treatment of 200 μl vehicle (DMSO:acetone: 1:40 v/v) before and after UVR each exposure. […] Carcinomas were recorded grossly as downward-invading lesions, which were confirmed histologically. […] There were 11 mice in each group.
# (§4) SKH1 hairless mice were purchased from Charles River Laboratories (Wilmington, Mass.). PKCε transgenic mice were generated as described previously (Reddig et al., 2000). The UVR source was Kodacel-filtered FS-40 sunlamps (approximately 60% UV-B and 40% UV-A). Mice were exposed to UVR from a bank of six Kodacel-filtered sunlamps. UVR dose was routinely measured using UVX-radiometer.
# as §2
# [7] = HPLC analysis of 17AAG in serum and mouse epidermis after topical application; format: in vivo, mice (SKH-1 hairless, FVB)
# Procedure: SKH hairless mice (6-7 weeks old) were exposed to UVR (1.8 kJ/m^2) three times weekly (Monday, Wednesday, and Friday). The mice in the vehicle group (n=3) received topical treatment of 200 μl vehicle (DMSO:acetone: 1:40 v/v) before and after UVR exposures. […] All mice were treated for 25 weeks and sacrificed at 1, 3, 6 and 24 hours following the last UVR exposure. (A) Blood samples were collected to analyze serum 17AAG by HPLC. […] Mice were sacrificed at 6 and 24 hours post-17AAG treatment. (B) Blood samples were collected for serum 17AAG analysis. (C) 17AAG level was also analyzed in the epidermal protein lysate. To prepare epidermal lysate, epidermis was scraped and homogenized in the lysis buffer. […] Each value is an average of duplicate samples. ND: Not detectable. Inset: Chemical structure of 17AAG.
# Dorsal areas of the mice (6-7 week old) were shaved and depilated one day before the treatment. […] Blood samples were collected to detect 17AAG in serum. To prepare epidermal lysate, epidermis was removed and homogenized with the lysis buffer. 17-AAG levels in the serum and mouse epidermis were analyzed by HPLC (Shin, et al., 2012).
# 1. Topically applied 17AAG is distributed both in epidermis and serum.
# Hsp90β-PKCε interaction = Hsp90β-PKCε interaction (Mus musculus, UniProt P11499); settings: 500 nmol topical before and after one UVR exposure, 24 hours post-UVR
# Procedure: PKCε-overexpressing transgenic mice (line 224) were exposed once to UVR (4 kJ/m2). […] Mice were sacrificed 24 hours post-UVR exposure. There were two mice per treatment point. Dorsal skin comprised excised, epidermal cell lysates prepared as described before (Aziz et al., 2007). Pooled epidermal cell lysate was analyzed for PKCε-Hsp90β interaction by immunoprecipitation/Western blot analyses (A).
# Epidermal lysates were prepared as for Western blot analysis. 100 μg of epidermal lysate was incubated with 10 μg of the indicated antibody. The total volume of the lysate/antibody mixture was adjusted to 1,000 μL with lysis buffer to allow for appropriate mixing and rotated at 4° C. overnight. Lysate/antibody mixture was then mixed with 50 μL of protein agarose A/G (sc-2003 Santa Cruz Biotechnology, Santa Cruz, Calif.) for 6 h. Lysate/antibody/protein A/G agarose mixture was then centrifuged at 8,000 g for 10 min to sediment the protein A/G agarose. Pellet was washed with 0.1% tween in PBS and then sedimented at 8,000 g for 10 min three times to wash any non-specific binding from the pellet. After three washes the immunoprecipite was then boiled for 5 min in 20 μL Protein Loading Buffer Blue (Cat # EC-886, National Diagnostics, Atlanta, Ga.). Immunoprecipitates were then treated as in Western Blot analysis above.
# Hsp90 = settings: cited from earlier work
# UVR-induced SCC [8] = test: UVR-induced development of SCC in PKCε overexpressing transgenic FVB/N mice and wild-type littermates; format: in vivo
# Procedure: as §3, §4
# [9] = cited from earlier work
# [10] = in vivo; cited from earlier work
# human Hsp90 = settings: cited from earlier work
# [11] = clinical trials; cited from earlier work
# [12] = both mice, 24 hr and 48 hr post-UVR
# [13] = 500 nmol topical after each UVR, 6 and 12 weeks
# [14] = SKH-1 hairless mice, 17AAG applied post each UVR exposure only
# [15] = FVB mice, single topical application, 6 hr after treatment
# Sequence of Hsp90β-PKCε interaction (P11499 2-724 limits assumed): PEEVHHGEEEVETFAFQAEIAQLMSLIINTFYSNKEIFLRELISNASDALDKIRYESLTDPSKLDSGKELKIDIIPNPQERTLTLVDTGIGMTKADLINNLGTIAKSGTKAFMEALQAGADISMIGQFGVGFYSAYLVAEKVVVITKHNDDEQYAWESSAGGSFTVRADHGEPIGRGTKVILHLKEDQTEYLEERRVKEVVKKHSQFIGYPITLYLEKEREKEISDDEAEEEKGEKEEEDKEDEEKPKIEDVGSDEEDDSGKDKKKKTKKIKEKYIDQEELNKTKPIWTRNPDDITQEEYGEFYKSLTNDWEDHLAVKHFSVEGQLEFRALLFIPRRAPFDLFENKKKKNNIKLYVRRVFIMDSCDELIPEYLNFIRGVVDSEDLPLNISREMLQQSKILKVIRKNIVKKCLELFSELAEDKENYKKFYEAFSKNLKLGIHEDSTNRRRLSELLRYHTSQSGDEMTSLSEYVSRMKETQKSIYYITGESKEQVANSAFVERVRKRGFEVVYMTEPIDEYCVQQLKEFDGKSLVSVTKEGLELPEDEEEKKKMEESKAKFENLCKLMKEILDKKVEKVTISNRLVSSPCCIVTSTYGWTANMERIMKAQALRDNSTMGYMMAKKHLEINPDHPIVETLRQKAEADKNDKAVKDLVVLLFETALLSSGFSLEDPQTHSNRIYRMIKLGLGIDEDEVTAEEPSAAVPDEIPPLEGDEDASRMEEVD
smiles,measurement,setting,value
"C=CCNC1=C2C[C@@H](C)C[C@H](OC)[C@H](O)[C@@H](C)/C=C(\C)[C@H](OC(N)=O)[C@@H](OC)/C=C\C=C(/C)C(=O)NC(=CC1=O)C2=O [17AAG, 17-allylamino-demethoxygeldanamycin]","Effect on Hyperplasia, Mice 1 or Slide 1, 24 Hr. post UVR",UVR-induced hyperplasia [1],+++
same,"Effect on Hyperplasia, Mice 1 or Slide 1, 48 Hr. post UVR",UVR-induced hyperplasia [1],+++
same,"Effect on Hyperplasia, Mice 2 or Slide 2, 24 Hr. post UVR",UVR-induced hyperplasia [1],+++
same,"Effect on Hyperplasia, Mice 2 or Slide 2, 48 Hr. post UVR",UVR-induced hyperplasia [1],+++
same,effect on UVR-induced hyperplasia (Table 3),UVR-induced hyperplasia [1]; [12],positive effect
same,UVR-induced hyperplasia (epidermal thickness),UVR-induced hyperplasia [2],inhibited
same,PKCε expression level,"[3]; 500 nmol topical before and after one UVR exposure, 24 hours post-UVR (FIG. 3A input)",did not appreciably affect
same,"Stat3, pStat3Ser727, pStat3Tyr705 and pAktser473 expression levels","[3]; topical before and after one UVR exposure, 24 hours post-UVR",inhibited
same,Hsp70 level,"PKCε, Hsp90β, Hsp70",increase
same,Hsp90β and PKCε expression levels,"PKCε, Hsp90β, Hsp70",inhibition
same,"expression level of MMP-2, MMP-9, collagen IV",[4]; [13],decrease
same,expression of Hsp70,[4]; [13],increase
same,UVR-induced proliferative marker PCNA,[4]; topical,inhibited
same,Half-life,"[5]; administered intravenous or orally, literature reports",3 to 4 h
same,bioavailability,[5]; given intraperitoneally,excellent
same,bioavailability,[5]; given orally,modest
same,SCC incidence,"UVR-induced SCC [6]; SKH hairless mice, 500 nmol topical before and after each UVR exposure",significantly (p=0.038) inhibited
same,change in SCC latency,"UVR-induced SCC [6]; SKH hairless mice, 500 nmol topical before and after each UVR exposure (1.8 kJ/m2, three times weekly)",17 weeks
same,increase in SCC latency,UVR-induced SCC [6]; [14],20 weeks
same,inhibition of SCC incidence,UVR-induced SCC [6]; [14],> 50%
same,UVR-induced hyperplasia in uninvolved dorsal skin,"UVR-induced SCC [6]; end of SCC experiment, SKH hairless mice (FIG. 5C)",inhibition
same,half-life of topically applied 17AAG,"[7]; 500 nmol in DMSO:acetone 1:40 on skin, inferred from decline at 24 hours",short
same,epidermal 17AAG level,[7]; [15],detectable
same,serum 17AAG level,[7]; [15],detectable
same,serum and epidermal 17AAG levels,"[7]; SKH-1 and FVB mice, 24 hours post-17AAG treatment",lowest
same,time of maximum serum 17AAG level post topical application,"[7]; SKH-1 hairless mice, topical 500 nmol with three weekly UVR exposures for 25 weeks",1 h
same,UVR-induced PKCε-Hsp90β interaction,Hsp90β-PKCε interaction,suppressed
same,higher affinity for Hsp90 derived from tumor cells compared to Hsp90 from normal cells,Hsp90,100 fold
same,UVR-induced development of SCC,"UVR-induced SCC [8]; PKCε overexpressing transgenic FVB/N mice, topical 500 nmol before and after each UVR, p=0.036",significantly inhibited
same,UVR-induced development of SCC,"UVR-induced SCC [8]; wild-type and PKCε overexpressing transgenic FVB/N mice, topical, p<0.01",significantly (p<0.01) inhibited
same,UVR-induced development of SCC,"UVR-induced SCC [8]; wild-type littermates (FVB/N), topical 500 nmol before and after each UVR, p=0.018",significantly inhibited
same,"solubility in water or organic solvent, such as DMSO and ethanol, compared with Geldanamycin",[9],higher
CO[C@H]1/C=C\C=C(/C)C(=O)NC2=CC(=O)C(NCCN(C)C)=C(C[C@@H](C)C[C@H](OC)[C@H](O)[C@@H](C)/C=C(\C)[C@@H]1OC(N)=O)C2=O.Cl [17DMAG],oral bioavailability,[10],excellent
same,potency against human Hsp90 relative to 17-AAG,human Hsp90,~2 times
COC1=C2C[C@@H](C)C[C@H](OC)[C@H](O)[C@@H](C)/C=C(\C)[C@H](OC(N)=O)[C@@H](OC)/C=C\C=C(/C)C(=O)NC(=CC1=O)C2=O [Geldanamycin],liver toxicity,[11],liver toxicity
CCNC(=O)c1cc2c(-c3cc(OCCN4CCCC4)c(Cl)cc3Cl)nc(N)nc2[nH]1 [NPVBEP800],"Effect on Hyperplasia, Mice 1 or Slide 1, 24 Hr. post UVR",UVR-induced hyperplasia [1],+++
same,"Effect on Hyperplasia, Mice 1 or Slide 1, 48 Hr. post UVR",UVR-induced hyperplasia [1],+++
same,"Effect on Hyperplasia, Mice 2 or Slide 2, 24 Hr. post UVR",UVR-induced hyperplasia [1],+++
same,"Effect on Hyperplasia, Mice 2 or Slide 2, 48 Hr. post UVR",UVR-induced hyperplasia [1],+++
same,effect on UVR-induced hyperplasia (Table 3),UVR-induced hyperplasia [1]; [12],positive effect
CCNC(=O)c1noc(-c2cc(C(C)C)c(O)cc2O)c1-c1ccc(CN2CCOCC2)cc1 [NVPAU922],effect on UVR-induced hyperplasia (Table 3),UVR-induced hyperplasia [1]; [12],slightly negative effect
CC1(C)CC(=O)c2c(C(F)(F)F)nn(-c3ccc(C(N)=O)c(N[C@H]4CC[C@H](O)CC4)c3)c2C1 [SNX-2112],"Effect on Hyperplasia, Mice 2 or Slide 2, 24 Hr. post UVR",UVR-induced hyperplasia [1],+++
same,"Effect on Hyperplasia, Mice 2 or Slide 2, 48 Hr. post UVR",UVR-induced hyperplasia [1],+++
same,effect on UVR-induced hyperplasia (Table 3),"UVR-induced hyperplasia [1]; mouse 1, 24 hr and 48 hr post-UVR",no effect
same,effect on UVR-induced hyperplasia (Table 3),"UVR-induced hyperplasia [1]; mouse 2, 24 hr and 48 hr post-UVR",positive effect
